Data set [1] deals with c-Myc/Max (Homo sapiens, UniProt P01106+P61244). In words: Inhibition of His6-tagged Max (151 residues)(unknown origin) expressed in bacterial system/recombinant MYC ) (unknown origin) expressed in bacterial system by EMSA.
The nature of data set [2]: Lipophilicity, logP of compound. The data set is classed as physicochemical. The note with it: octanol/water.
For data set [3], the system named is HL-60. In words: Inhibition of cell development in human HL-60 cells. It counts as functional, cell-based.
Data set [4] deals with Myc proto-oncogene protein (Homo sapiens, UniProt P01106). In words: Binding affinity to CM5 sensor chip immobilized MYC bHLHZip domain (unknown origin) assessed as dissociation constant by SPR analysis.
The subject of data set [5] is Burkitts lymphoma cell. In words: Inhibition of cell growth in human Burkitts lymphoma cells. It counts as functional, cell-based.

Regarding `COC(=O)c1ccc(Nc2ccc([N+](=O)[O-])c3nonc23)c(-c2ccc(C)cc2)c1`, in data set [1], the half-inhibitory concentration (IC50) was 34 µM.

`Cn1nc(C(F)(F)F)cc1-c1ccc(OCc2ccc(Cl)cc2)c(-c2ccc(Cl)c(C(F)(F)F)c2)c1O` returned a lipophilicity (logP) in data set [2] of 8.4.

As to `O=[N+]([O-])c1ccc(Nc2ccccc2-c2ccccc2)c2nonc12`, the IC50 in data set [3] was found to be 7.2 µM.

With `COc1ccc2nc3cc(/N=N/c4ccc(N)nc4N)ccc3c(N)c2c1`, the Kd in data set [4] was determined as 1.6 µM. Moreover, the IC50 in data set [5] came out at 0.5 µM.

In data set [3], `O=C(O)c1ccc(Nc2ccc([N+](=O)[O-])c3nonc23)cc1` returned an IC50 of 30 µM.

Values taken from ChEMBL document CHEMBL5512618, “MYC the oncogene from hell: Novel opportunities for cancer therapy” (Eur J Med Chem, 2024).
